For 1 molecule, IC50, Activity and inhibition results are on record in ChEMBL document CHEMBL5331124, “Degradation of Hexokinase 2 Blocks Glycolysis and Induces GSDME-Dependent Pyroptosis to Amplify Immunogenic Cell Death for Breast Cancer Therapy” (J Med Chem, 2023).

The source made the active and inactive calls. The calls are words filed in the database; no cut-off is given here.

For one data set, the system named is MCF7. The experiment in a line: Antiproliferative activity against human MCF7 cells assessed as cell growth inhibition measured for 72 hrs by MTT assay. The following applies: MCF7, 72 h. The format is functional, cell-based.
The target of data set [1] is T1, Hexokinase-2 (Mus musculus) (UniProt O08528).
T1 sequence (whole entry): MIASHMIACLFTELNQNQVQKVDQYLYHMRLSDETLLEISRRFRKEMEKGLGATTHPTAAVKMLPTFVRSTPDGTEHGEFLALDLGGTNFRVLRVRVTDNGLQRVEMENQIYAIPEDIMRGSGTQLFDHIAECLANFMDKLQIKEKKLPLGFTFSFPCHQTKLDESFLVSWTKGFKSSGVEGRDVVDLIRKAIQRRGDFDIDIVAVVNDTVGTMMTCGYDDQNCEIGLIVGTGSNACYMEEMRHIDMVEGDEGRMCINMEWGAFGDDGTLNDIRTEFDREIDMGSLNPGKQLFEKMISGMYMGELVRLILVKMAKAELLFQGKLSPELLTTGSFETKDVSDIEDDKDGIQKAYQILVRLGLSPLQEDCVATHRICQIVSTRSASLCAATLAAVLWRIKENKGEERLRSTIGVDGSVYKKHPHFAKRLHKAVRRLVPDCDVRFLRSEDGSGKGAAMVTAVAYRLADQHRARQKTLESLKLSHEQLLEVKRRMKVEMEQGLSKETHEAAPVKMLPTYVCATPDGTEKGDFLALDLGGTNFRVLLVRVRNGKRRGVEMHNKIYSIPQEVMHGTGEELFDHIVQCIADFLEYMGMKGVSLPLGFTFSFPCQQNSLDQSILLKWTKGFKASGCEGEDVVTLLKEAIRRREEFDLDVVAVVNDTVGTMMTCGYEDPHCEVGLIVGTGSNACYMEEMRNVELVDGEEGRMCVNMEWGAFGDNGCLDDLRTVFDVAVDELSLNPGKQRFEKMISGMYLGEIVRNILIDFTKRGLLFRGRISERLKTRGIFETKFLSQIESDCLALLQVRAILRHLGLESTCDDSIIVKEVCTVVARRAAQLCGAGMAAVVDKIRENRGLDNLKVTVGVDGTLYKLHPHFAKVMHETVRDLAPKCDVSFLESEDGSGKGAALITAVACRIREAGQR
The experiment in a line: Induction of HK2 degradation in mouse 4T1 cells at 20 uM measured upto 18 hrs by Western blot analysis. The data set is classed as cell-based. (Immunoblotting shows a protein as a band on a membrane.)

Data set [2] addresses T1, Hexokinase-2 (Mus musculus). The data set can be described thus: Induction of HK2 degradation in mouse 4T1 cells measured for 36 hrs by confocal microscopic analysis. The data set is classed as cell-based. As to conditions: dose 2.0 µM.
The target in data set [3] is Protein cereblon/Hexokinase-2 (Homo sapiens) (UniProt P52789+Q96SW2). The data set can be described thus: PROTAC activity at CRBN/HK2 in human MDA-MB-231 cells assessed as HK2 degradation at 20 uM incubated for 36 hrs. The data set is classed as cell-based.
Data set [4] deals with 4T1. The experiment in a line: Inhibition of glycolysis in mouse 4T1 cells assessed as reduction in extracellular acidification rate at 20 uM incubated for 1 to 4 hrs by seahorse analyzer method. The following applies: time 1-4 hrs. The format is functional, cell-based.
In data set [5] the test system is 4T1. The data set can be described thus: Induction of mitochondrial damage in mouse 4T1 cells assessed as reduction in ATP level at 20 uM measured for 36 hrs. The data set is classed as functional, cell-based.
Data set [6] addresses T2, Hexokinase-2 (Homo sapiens) (UniProt P52789).
T2 sequence (whole entry): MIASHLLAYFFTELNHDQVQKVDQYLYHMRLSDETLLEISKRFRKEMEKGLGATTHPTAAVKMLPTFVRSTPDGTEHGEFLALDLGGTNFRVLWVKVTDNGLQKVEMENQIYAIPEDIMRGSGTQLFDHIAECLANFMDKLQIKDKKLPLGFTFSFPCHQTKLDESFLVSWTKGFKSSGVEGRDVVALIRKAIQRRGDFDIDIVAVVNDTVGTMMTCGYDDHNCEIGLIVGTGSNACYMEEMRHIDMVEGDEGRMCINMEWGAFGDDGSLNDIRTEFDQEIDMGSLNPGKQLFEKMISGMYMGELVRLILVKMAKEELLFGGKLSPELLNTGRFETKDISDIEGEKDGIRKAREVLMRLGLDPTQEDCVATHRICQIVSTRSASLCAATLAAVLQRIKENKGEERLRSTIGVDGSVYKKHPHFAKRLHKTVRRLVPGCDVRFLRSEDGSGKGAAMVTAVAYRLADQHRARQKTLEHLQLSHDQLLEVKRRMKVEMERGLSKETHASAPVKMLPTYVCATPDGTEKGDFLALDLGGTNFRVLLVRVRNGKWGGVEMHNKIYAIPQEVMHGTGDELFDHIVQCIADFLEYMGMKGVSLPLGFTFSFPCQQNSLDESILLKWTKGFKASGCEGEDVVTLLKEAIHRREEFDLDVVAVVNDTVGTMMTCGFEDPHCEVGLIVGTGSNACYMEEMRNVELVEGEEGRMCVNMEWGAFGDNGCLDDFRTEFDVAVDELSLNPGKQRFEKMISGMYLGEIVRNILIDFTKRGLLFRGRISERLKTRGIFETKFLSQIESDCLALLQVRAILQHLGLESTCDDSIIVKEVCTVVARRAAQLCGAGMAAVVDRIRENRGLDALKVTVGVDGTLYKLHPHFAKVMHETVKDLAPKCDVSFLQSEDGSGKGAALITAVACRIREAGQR
The data set can be described thus: Induction of HK2 degradation in human MDA-MB-231 cells assessed as increase in Bax expression at 20 uM measured for 36 hrs by Western blot analysis. The format is cell-based.

For a further data set, the system named is MDA-MB-231. The experiment in a line: Induction of pyroptosis in human MDA-MB-231 cells assessed as increase in N-terminal GSDME level at 20 uM incubated for 36 hrs by Western blot analysis. The format is functional, cell-based.
Data set [7] deals with 4T1. The data set can be described thus: Antitumor immunity against mouse 4T1 cells implanted in BALB/c mouse model assessed as increase in LDH release in cell supernatant at 20 uM measured for 36 hrs by ELISA analysis. The data set is classed as functional, cell-based. Background: LDH leaks from cells whose membrane has failed.
Data set [8] is described as follows: Toxicity in BALB/c mouse implanted with mouse 4T1 cells assessed as pathological changes in spleen at 50 mg/kg, ip measured after 25 days by Hematoxylin -eosin staining based analysis. The data set is classed as organism-based. As to conditions: in vivo, 600 h, time 25 day.
Data set [9] relates to 4T1. The data set can be described thus: Antitumor immunity against mouse 4T1 cells implanted in BALB/c mouse model assessed as downregulation of IL-10 expression in mouse tumor by ELISA analysis. The data set is classed as functional, cell-based. On the technique in general: In an ELISA, binding on a coated surface is turned into a signal by an enzyme label.
Data set [10] relates to 4T1. The data set can be described thus: Antitumor immunity activity against mouse 4T1 cells implanted in BALB/c mouse assessed as increase in proportion of cytotoxic CD8 positive T cells in tumor by flow cytometry analysis. The format is functional, cell-based.
The nature of data set [11]: Toxicity in BALB/c nude mouse xenografted with human MDA-MB-231 cells assessed as effect on hematocrit level at 50 mg/kg, ip measured after 30 days by routine blood test. The format is organism-based. As to conditions: in vivo, 720 h, time 30 day.
Data set [12] is described as follows: Toxicity in BALB/c nude mouse xenografted with human MDA-MB-231 cells assessed as effect on mean corpuscular volume at 50 mg/kg, ip measured after 30 days by routine blood test. The format is organism-based. The following applies: in vivo, 720 h, time 30 day.
A short description of data set [13]: Toxicity in BALB/c nude mouse xenografted with human MDA-MB-231 cells assessed as effect on red blood cells at 50 mg/kg, ip measured after 30 days by routine blood test. The following applies: in vivo, 720 h, time 30 day. The data set is classed as organism-based.
Data set [14] is described as follows: Toxicity in BALB/c mouse implanted with mouse 4T1 cells assessed as colon damage at 50 mg/kg, ip measured after 25 days in presence of cisplatin by H and E staining based analysis. As to conditions: in vivo, 600 h, time 25 day. The data set is classed as organism-based.

Protein cereblon/Hexokinase-2 (Homo sapiens), sequence (Q96SW2 whole entry, looked up, one chain of several): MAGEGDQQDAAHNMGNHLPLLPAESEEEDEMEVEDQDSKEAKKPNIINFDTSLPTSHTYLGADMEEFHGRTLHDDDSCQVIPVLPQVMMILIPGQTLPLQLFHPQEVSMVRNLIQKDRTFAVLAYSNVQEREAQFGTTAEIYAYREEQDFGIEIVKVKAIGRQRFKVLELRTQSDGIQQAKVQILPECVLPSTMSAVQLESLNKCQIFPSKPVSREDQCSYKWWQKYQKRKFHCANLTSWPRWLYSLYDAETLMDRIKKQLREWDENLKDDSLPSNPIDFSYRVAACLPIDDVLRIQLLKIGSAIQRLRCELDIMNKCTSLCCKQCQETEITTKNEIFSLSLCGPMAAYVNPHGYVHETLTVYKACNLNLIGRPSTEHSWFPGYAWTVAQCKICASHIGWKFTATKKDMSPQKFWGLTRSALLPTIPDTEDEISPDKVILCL

The IC50 is the concentration that gives 50% inhibition. For `O=C1CCC(N2C(=O)c3cccc(NCCCCNC(=O)c4nn(Cc5ccc(Cl)cc5Cl)c5ccccc45)c3C2=O)C(=O)N1` (stereo unspecified), the IC50 in the data set on MCF7 came to 21.7 µM. Moreover, the result (in [1]; in data set [3]; in the data set on 4T1 [5]; in [6]; in the data set with MDA-MB-231; in the data set with 4T1 [7]) was Active. For the same molecule, the result with 4T1 [9] and in the data set on 4T1 [10] was Active. Besides, the Activity entry in data set [2] was “Dose-Dependent Effect”; in [8], “Non-Toxic”; in data set [11], “Non-Toxic”; in data set [12] it was “Non-Toxic”; in data set [13], “Non-Toxic”; in data set [14], “Non-Toxic”. Moreover, in the data set with 4T1 [4], the inhibition entry was “Active”.
